Results as given in patent US20150306011A1, “METHODS FOR USING SOY PEPTIDES TO INHIBIT H3 ACETYLATION, REDUCE EXPRESSION OF HMG-COA REDUCTASE AND INCREASE LDL RECEPTOR AND SP1 EXPRESSION IN A MAMMAL” (priority 2014, published 2015).
Entries after “also recorded” stand apart in the source; their conditions may differ.

Tests used:
[1] = tested on: LDL-receptor expression in HepG2 cells; assay: Western blot of LDL receptor expression in HepG2 cells in cholesterol-free media; type: cell-based; conditions: 10 uM synthetic lunasin, 24 hours, cholesterol-free media 24 hours
Method: (§1) FIG. 3 is a photograph of a Western blot analysis (top) and a table (below) showing densitometer values indicating the relative levels of expression of LDL receptor in HepG2 cells that were (CFM +LS(24)) or were not (CFM) treated with lunasin for 24 hours prior to incubation in cholesterol free media (CFM) for 24 hours to activate SREBP. After incubations, total protein was extracted and 10 ug protein was loaded onto 10% Tris-glycine gels, electroblotted onto nitrocellulose membrane, and immunostained with primary antibodies raised against LDL-receptor and actin (to show equal loading of proteins.) Spot densitometer values represent mean and standard deviation of data from three separate experiments.
In the second experiment, HepG2 cells (1×10^6) were treated with or without 10 uM synthetic lunasin in DMEM with 10% FBS for 24 hours before growth media is replaced with cholesterol-free media to activate SREBP. After 24 hours, total protein was extracted and 10 ug proteins loaded onto 10% Tris-glycine gels, electroblotted onto nitrocellulose membrane, and immunostained with primary antibodies raised against LDL-receptor and actin (to show equal loading of proteins). Spot densitometer values were obtained by digital scanning and Un-Scan It software, and represent mean and standard deviation of data from three separate experiments.

[2] = tested on: tumor formation in mammalian cells; conditions: 1,000 nM (5 μg/ml) to 10,000 nM (50 μg/ml) lunasin; cited from earlier work
[3] = tested on: histone H3 acetylation by PCAF; assay: PCAF histone acetylase (HAT) assay, core histones from HeLa cells as template, immunoblot; type: biochemical
Method: Acid extracted protein from untreated (untrt) HeLa cells was used as template in histone acetylase reactions using HAT enzyme, PCAF, in the presence or absence of 10 uM lunasin. Reaction products were immunoblotted and stained with antibodies against diacetylated histone H3. Untrt (−) is the histone template control, NaB (+) correspond to acid extracted histones from NaButyrate treated HeLa cells (positive control). […] Numbers in parenthesis indicate densitometer readings relative to the untreated control (set as 1) in PCAF HAT reaction products.
Acid extracted histones isolated from untreated (untrt) HeLa cells were used in PCAF HAT reactions, immunoblotted and stained with antibodies to H3 Ac-Lys9 and H3 Ac-Lys14. Untrt (−) is the histone template control, NaB (+) correspond to acid extracted histones from NaButyrate treated HeLa cells (posititve control), +Lun correspond to 10 uM lunasin treated histone template and −Lun correspond to non-lunasin treated. […] Numbers in parenthesis indicate densitometer readings relative to the signal level of lunasin/lunasin treatment (set as 1) in immunoblots stained with Ac-Lys14 H3.
[…] H3 histone acetylation by PCAF histone acetylase enzyme is required for the SREBP activation of genes involved in cholesterol biosynthesis including HMG-CoA reductase (9). Previous study has shown that lunasin is a potent inhibitor of histone H3 acetylation in mammalian cells exposed to the histone deacetylase inhibitor, sodium butyrate (NaB) (4). To determine the effect of lunasin on histone H3 acetylation by PCAF, HAT assay reaction using acid-extracted histones from untreated HeLa cells as template was conducted. […]
The HAT bioactivity assay was conducted using acid extracted core histones from HeLa cells (Upstate/Millipore) as a template (temp (−) control) for the PCAF catalyzed HAT reaction. […] The numbers below the legend indicate relative densitometer readings normalized using immunosignal from the template (temp). […]

[4] = cited from earlier work
[5] = tested on: histone H3 acetylation by PCAF; assay: PCAF HAT bioactivity assay, core histones from chicken erythrocyte as template; type: biochemical; conditions: around 10 ug sample protein with 1 ug core histones; versus untreated control
Method: Lunasin-enriched soy concentrate with soy flour (LeSC+SF) retains bioactivity even when digested with digestive enzymes. Biological activity of LeSC (A), LeSC+SF (B), digested LeSC+SF (C), digested LeSC (D), digested soy protein isolate (E) and digested soy concentrate (F) was measured using the H3 histone acetyltransferase (HAT) assay (see Example 8.) Around 100 mg total protein of LeSC, LeSC+SF, soy protein isolate and soy concentrate were digested by mixing pancreatin (Sigma Life Sciences, Saint Louis, Mo.) at 1:1 (w/w) and incubating for 30 min. at 40° C. To confirm that the HAT assay is working, treatment with synthetic lunasin (+synL) was included. Synthetic lunasin reduced acetylation of histone H3 by the histone acetylase enzyme, PCAF, using core histones isolated from chicken erythrocyte (Upstate/Millipore, Billerica, Mass.) as template for the HAT assay. […]
Core histones purified from chicken erythrocyte cells were used as templates in histone acetylase (HAT) reactions using PCAF histone acetylase enzyme, in the presence or absence of around 2-10 uM lunasin. […] Chemiluminescent signals from antibody complexes were visualized using standard chemiluminescent reagents and exposed to Kodak BioMAX film, developed and spot densitometer measured by using digital scanner and UN-SCAN-IT software program from Silk Scientific (Orem, Utah).

[6] = tested on: Sp1 expression in HepG2 cells; assay: Western blot of Sp1 levels in HepG2 cells; type: cell-based; conditions: 10 uM synthetic lunasin, one experiment
Method: FIG. 4 is a photograph of a Western blot analysis (top) and a table (below) showing densitometer values indicating the relative levels of expression of Sp1 in HepG2 cells that were grown from confluence in growth media for 24 hours before growth media was replaced with fresh growth media (Media), media with lunasin (Media+LS) or cholesterol free media with lunasin (CFM+LS) or without lunasin (CFM). Samples were then incubated for 24 or 48 hours as indicated. […]
Unlike HMG-CoA reductase, SREBP activation of LDL-receptor by sterol depletion requires increased recruitment of Sp1 co-activator to a site adjacent to SREBP in the promoter/regulatory sequence of LDL-receptor gene (25). […] To test this hypothesis, the level of Sp1 was determined in lunasin-treated growth media and cholesterol-free media by Western analysis using Sp1 antibody, as follows: HepG2 cells (1×10^6) were grown from confluence in DMEM with 10% FBS for 24 hours before growth media was replaced with fresh growth media or cholesterol-free media (to activate SREBP) and treated with, or without 10 uM synthetic lunasin. […]

[7] = tested on: HMG-CoA reductase expression in HepG2 cells; assay: Western blot of HMG-CoA reductase expression in HepG2 cells in cholesterol-free media; type: cell-based; conditions: 10 uM synthetic lunasin, 24 hours, cholesterol-free media 24 hours
Method: as §1, with “2” for “3”, “HMG-CoA reductase” for “LDL receptor”, “(CFM+LS (24))” for “(CFM +LS(24))”, “sterol regulatory element binding proteins (SREBP.)” for “SREBP.”, “HMG-CoA reductase” for “LDL-receptor”
In the first experiment, HepG2 cells (1×10^6) were treated with or without 10 uM synthetic lunasin in DMEM with 10% FBS for 24 hours before growth media was replaced with cholesterol-free media to activate SREBP. After 24 hours, total protein was extracted and 10 ug protein was loaded onto 10% Tris-glycine gels, electroblotted onto nitrocellulose membrane, and immunostained with primary antibodies raised against HMG-CoA reductase and actin (to show equal loading of proteins). […]

[8] = 10 uM lunasin, acid-extracted histones from untreated HeLa cells

Which “increase of LDL-receptor expression” value [1] does the source give for “lunasin: natural, synthetically or recombinantly obtained soybean lunasin polypeptide (SEQ. ID. 2), small subunit of a cotyledon-specific 2S albumin” here?
Its value is “more than 60%”.

What about the “tumor reduction activity compared to the control group” value [2] of the same substance?
The value was “statistically significant tumor reduction activity”.

And the “H3 Lys 14 acetylation by PCAF (antibodies to H3 Ac-Lys9 and H3 Ac-Lys14)” value [3, 8]?
Its value is “decreased H3 Lys 14 acetylation; also recorded: specifically binds to Lys 14, preventing it from being acetylated by PCAF”.

What about the “histone H3 acetylation (diacetylated H3, Ac-Lys9+Ac-Lys14) by PCAF” value [3, 8] of the same substance?
Its value is “significant decrease in H3 acetylation; also recorded: dramatic reduction of histone H3 acetylation”.

What about the “H3 acetylation by PCAF, undigested samples (Example 6)” value ([3]; core histones from HeLa cells as template) of the same substance?
Its value is “significant reduction in H3 acetylation”.

And the water solubility [4]?
Its water solubility is “water soluble”.

And the “H3 acetylation by PCAF, undigested samples (Example 5)” value [5]?
The value was “significant reduction in H3 acetylation”.

And the “increase of Sp1 levels in cholesterol-free media” value ([6]; cholesterol-free media)?
Its value is ~60%.

What about the “Sp1 levels, lunasin-treated versus control growth media” value ([6]; growth media) of the same substance?
Its value is “not significantly different”.

And the “reduction of HMG-CoA reductase expression” value [7]?
Its value is “more than 50%”.
